Assay results from patent US11578042B2, “3,5-diamino-6-chloro-N-(N-(4-(4-(2-(hexyl(2,3,4,5,6-pentahydroxyhexyl)amino)ethoxy)phenyl)butyl)carbamimidoyl)pyrazine-2-carboxamide” (Parion Sciences, Inc., priority 2011, dated 2023).
“And” between values parts separate entries of the source, which are not always exact repeats. Equal values may be shown once. “Also recorded” adds a separate entry of the source.

How the values were obtained:
CBE cells = experiment: Airway hydration / surface liquid retention (in vitro CBE model); assay type: cell-based, canine; settings: 10 μM, 50 μL applied apically, 8 hours
Procedure: Primary CBE cells are plated onto collagen-coated, porous membranes maintained at an air-liquid interface to assess maintenance of surface liquid volume over time. At the start of the experiment, each 12 mm snapwell insert was removed from the plate containing air-liquid interface culture media, blotted dry, weighed, and 50 μL of vehicle (0.1% DMSO), or ENaC blocker (10 μM in 0.1% DMSO) applied to the apical surface and the mass was recorded. The inserts were immediately returned to a transwell plate (500 μL, Krebs Ringer Bicarbonate (KRB), pH 7.4 in lower chamber) and placed in a 37° C., 5% CO2 incubator. To reduce artifact due to an apical carbohydrate osmotic gradient upon water loss, glucose was not included in the apical buffer. […] The mass of surface liquid was converted to volume in μL. Data are reported as % initial volume (100%=50 μL).
The duration of sodium transport inhibition was determined indirectly by measuring the buffer retained after a 50 μl volume of experimental buffer was added to the apical surface of CBE cells.

[1] = Plasma potassium levels in sheep of the MCC study; settings: at effective / approximate ED50 doses
Procedure: In these studies, adult sheep were restrained and nasally intubated with an endotracheal tube. Aerosolized test articles were administered over 10^−15 minutes to sheep. Radiolabeled ^99mTc-sulfur colloid (TSC, 3.1 mg/mL; containing approximately 20 mCi) was then administered at a specified time four or eight hours after test article. The radiolabeled aerosol was administered through the endotracheal tube for about 5 minutes. The sheep were then extubated, and total radioactive counts in the lung were measured every 5 minutes for a 1-hour observation period. The rate of radiolabel clearance from the lung is representative of the MCC rate in the animal. […] The model also allows for the collection of simultaneous PK/PD information through plasma and urine sampling over the test period.

[2] = system: mucociliary clearance (MCC); experiment: Mucociliary clearance (MCC) studies in sheep; assay type: in vivo; settings: for AUC / Initial Slope (4.0-4.5 h): Table 10, 4 mL, 4 h post-dose
Procedure: Assay 2. Mucociliary Clearance (MCC) Studies in Sheep
The animal model that has been used most often to measure changes in MCC is the sheep model.
In these studies, adult sheep were restrained and nasally intubated with an endotracheal tube. Aerosolized test articles were administered over 10^−15 minutes to sheep. Radiolabeled ^99mTc-sulfur colloid (TSC, 3.1 mg/mL; containing approximately 20 mCi) was then administered at a specified time four or eight hours after test article. The radiolabeled aerosol was administered through the endotracheal tube for about 5 minutes. The sheep were then extubated, and total radioactive counts in the lung were measured every 5 minutes for a 1-hour observation period. The rate of radiolabel clearance from the lung is representative of the MCC rate in the animal. The advantage of this system is that it closely simulates the human lung environment. The model also allows for the collection of simultaneous PK/PD information through plasma and urine sampling over the test period. There are also several techniques to measure the drug concentrations on the airway surface during the MCC measurements. These include the collection of exhaled breath condensates or a filter paper method to obtain ASL via bronchoscopy.
Test solutions were aerosolized using a Raindrop nebulizer at a flowrate of eight liters per minute and connected to a dosimetry system consisting of a solenoid valve and a source of compressed air (20 psi). […] Using a Raindrop nebulizer, radiolabeled TSC was administered over approximately 3 minutes either 4 or 8 hours after drug treatment to evaluate efficacy/durability. Radioactive counts were measured in a central region in the right lung at 5 min intervals for one hour with a gamma camera.

[3] = sheep, in vivo, iv
HBE cells = experiment: Airway surface liquid drug clearance and metabolism by human airway epithelium; settings: 25 μL of 25 μM on apical surface of HBE, 37° C.
Source text: Assay 3. d. Airway Surface Liquid Drug (ASL) Clearance and Metabolism by Human Airway Epithelium

[4] = Human plasma protein binding; assay type: in vitro ADME
Log D = assay type: physicochemical
Human plasma metabolism = assay type: in vitro ADME; settings: read-out: Human Plasma Metabolism (t½)
[5] = sheep MCC model, given as concentration

With N=C(N)NC(=O)c1nc(Cl)c(N)nc1N [Amiloride, amiloride] the “surface liquid retained (% initial volume)” value (CBE cells) was 25±19.2%.

In the case of N=C(NCCCCc1ccc(OCCN(C[C@H](O)[C@@H](O)[C@H](O)[C@H](O)CO)C[C@H](O)[C@@H](O)[C@H](O)[C@H](O)CO)cc1)NC(=O)c1nc(Cl)c(N)nc1N [Comparative Example 1], the “effect on plasma potassium” value [1] is reported as “causes a rise in plasma potassium”, the ED50 ([2]; Ovis aries, sheep MCC at 8 hrs, read-out: Approximate ED50) is reported as ~0.24 µmol/kg and the “AUC, % of maximal effect” value ([2]; Table 7, 3000 μM, 8 hrs) is reported as “(47%)”. The “AUC, change from vehicle” value ([2]; Table 7, 3000 μM, 8 hrs) was 2.9 % CI*h, the “Max Clearance, % of maximal effect” value ([2]; Table 7, 3000 μM, 8 hrs) was “(31%)” and the “Max Clearance, change from vehicle” value ([2]; Table 7, 3000 μM, 8 hrs) was 4%. For the same molecule, the “Slope (8-8.5 h), % of maximal effect” value ([2]; Table 7, 3000 μM, 8 hrs) was “(60%)”, the “Slope (8-8.5 h), change from vehicle” value ([2]; Table 7, 3000 μM, 8 hrs) was 6.1 and the “Approximate ED50” value ([2]; sheep MCC at 8 hrs, listed as Comp. Ex. 1) was ~240 nmol/kg. The “ED50 (AUC=47%)” value [2, 5] was “approximately 3000 μM”, the “approximate ED50 dose” value [2, 5] was ~3000 µM and the “dose recovered in urine” value [3] was 43%.

With N=C(NCCCCc1ccc(OC[C@H](N)C(N)=O)cc1)NC(=O)c1nc(Cl)c(N)nc1N [Comparative Example 4, (S)-3,5-diamino-6-chloro-N-(N-(4-(4-(2,3-diamino-3-oxopropoxy)phenyl)butyl)carbamimidoyl)pyrazine-2-carboxamide] the “% of Apical Mass as Metabolites (2 h)” value (HBE cells) was 83% and 83.0 ± 3.5%, the “% on Basolateral Side as Metabolites (2 h)” value (HBE cells) was 94.7 ± 1.0% and the “effect on plasma potassium” value [1] was “has elevations of plasma K; also recorded: significant increase in plasma potassium levels”. The fraction unbound [4] was 0.24, the logD (Log D) was 0.64 and the AUC ([2]; 11.2 μg/kg) was 6.9 ± 1.0 % CI × h. For the same molecule, the “Initial Slope (4.0-4.5 h)” value ([2]; 11.2 μg/kg) was 14.5 ± 1.3, the AUC ([2]; 112 μg/kg) was 14.1 ± 2.2 % CI × h and the “Initial Slope (4.0-4.5 h)” value ([2]; 112 μg/kg) was 32.2 ± 7.3. The “approximate ED50 dose” value [2, 5] was ~3000 µM and the half-life (Human plasma metabolism) was 37 min.
